# Structures can show the parent of a compound that is named as a salt.
# How the values were obtained:
# Type in all cases: cell-based
# [1] = test system: human breast cancer cell line T-47D; assay: Caspase cascade activation (EC50), T-47D; settings: Homo sapiens; T47D cells; caspase cascade activation; read-out: caspase potency (EC50) T47D
# Protocol: (§1) Human breast cancer cell lines T-47D, human hepatocellular carcinoma cell line SNU398, human colon carcinoma cell line HCT116, human cancer cell line H1299, human Burkitt's lymphoma cell line Namalwa, human lymphoma cell line Raji, and human B cell lymphoblastoid cell line Ramos were grown according to media component mixtures designated by American Type Culture Collection+10% FCS (Invitrogen Corporation), in a 5% CO2-95% humidity incubator at 37° C. T-47D and H1299 cells were maintained at a cell density between 50 and 80% confluency at a cell density of 0.1 to 0.6×10^6 cells/mL. Cells were harvested at 600×g and resuspended at 0.65×10^6 cells/mL into appropriate media+10% FCS. An aliquot of 22.5 μL of cells was added to a well of a 384-well microtiter plate containing 2.5 μL of a 10% DMSO in RPMI-1640 media solution containing 0.16 to 100 μM of 3-(2-chlorophenyl)-6-(3,4-methylenedioxyphenyl)-7H-[1,2,4]triazolo[3,4-b][1,3,4]thiadiazine or other test compound (0.016 to 10 μM final). An aliquot of 22.5 μL of cells was added to a well of a 384-well microtiter plate containing 2.5 μL of a 10% DMSO in RPMI-1640 media solution without test compound as the control sample. The samples were mixed by agitation and then incubated at 37° C. for 48 h in a 5% CO2-95% humidity incubator. After incubation, the samples were removed from the incubator and 25 μL of a solution containing 14 μM of N—(Ac-DEVD)-N′-ethoxycarbonyl-R110 (SEQ ID No.:1) fluorogenic substrate (Cytovia, Inc.; WO99/18856), 20% sucrose (Sigma), 20 mM DTT (Sigma), 200 mM NaCl (Sigma), 40 mM Na PIPES buffer pH 7.2 (Sigma), and 500 μg/mL lysolecithin (Calbiochem) was added. The samples were mixed by agitation and incubated at room temperature. Using a fluorescent plate reader (Model SPECTRAfluor Plus, Tecan), an initial reading (T=0) was made approximately 1-2 min after addition of the substrate solution, employing excitation at 485 nm and emission at 530 nm, to determine the background fluorescence of the control sample. After the 3 h incubation, the samples were read for fluorescence as above (T=3 h). Calculation: The Relative Fluorescence Unit values (RFU) were used to calculate the sample readings as follows: RFU(T=3H)−Control RFU(T=0)=Net RFU(T=3h) The activity of caspase cascade activation was determined by the ratio of the net RFU value for 3-(2-chlorophenyl)-6-(3,4-methylenedioxyphenyl)-7H-[1,2,4]triazolo[3,4-b][1,3,4]thiadiazine (Example P) or other test compound to that of control samples. The EC50 (nM) was determined by a sigmoidal dose-response calculation (Prism 3.0, GraphPad Software Inc.).
# [2] = test system: human hepatocellular carcinoma cell line SNU398; assay: Caspase cascade activation (EC50), SNU398; settings: Homo sapiens, SNU-398; SNU398 cells; caspase cascade activation; read-out: caspase potency (EC50) SNU398
# Protocol: as §1
# [3] = test system: human colon carcinoma cell line HCT116; assay: Caspase cascade activation (EC50), HCT116; settings: Homo sapiens, HCT-116; HCT116 cells; caspase cascade activation; read-out: caspase potency (EC50) HCT116
# Protocol: as §1
# [4] = test system: human Burkitt's lymphoma cell line Namalwa; assay: Caspase cascade activation (EC50), Namalwa; settings: Homo sapiens, Burkitts lymphoma cell; Namalwa cells; caspase cascade activation; read-out: caspase potency (EC50) Namalwa
# Protocol: as §1
# [5] = test system: human lymphoma cell line Raji; assay: Caspase cascade activation (EC50), Raji; settings: Homo sapiens, RAJI cells, read-out: caspase potency (EC50) RAJI
# Protocol: as §1
# [6] = test system: human B cell lymphoblastoid cell line Ramos; assay: Caspase cascade activation (EC50), Ramos; settings: Homo sapiens, RAMOS cells, read-out: caspase potency (EC50) RAMOS
# Protocol: as §1
EC50 [1] [nM],EC50 [2] [nM],EC50 [3] [nM],EC50 [4] [nM],EC50 [5] [nM],EC50 [6] [nM],SMILES
683,599,> 10000,580,568,711,"Cc1ccc(-c2nnc3n2N=C(c2ccc4c(c2)OCO4)CS3)cc1 [C, 3-(4-Methylphenyl)-6-(3,4-methylenedioxyphenyl)-7H-[1,2,4]triazolo[3,4-b][1,3,4]thiadiazine]"
–,–,–,71,133,78,"COc1ccc(C2=Nn3c(nnc3-c3cc(Cl)c(OC)c(OC)c3)SC2)cc1 [Example 5, 3-(3-Chloro-4,5-dimethoxyphenyl)-6-(4-methoxyphenyl)-7H-[1,2,4]triazolo[3,4-b][1,3,4]thiadiazine]"
855,5430,> 10000,> 10000,> 10000,7650,"Oc1ccc(C2=Nn3c(nnc3-c3ccc(Cl)cc3)SC2)cc1 [Example 6, 3-(4-Chlorophenyl)-6-(4-hydroxyphenyl)-7H-[1,2,4]triazolo[3,4-b][1,3,4]thiadiazine hydrobromide]"
–,–,–,2560,3370,2650,"COc1ccccc1-c1nnc2n1N=C(c1ccc(OCCN(C)C)cc1)CS2 [Example 9, 3-(2-Methoxyphenyl)-6-(4-(2-dimethylaminoethoxy)phenyl)-7H-[1,2,4]triazolo[3,4-b][1,3,4]thiadiazine]"
–,–,–,71,157,72,"Cc1ccc(C2=Nn3c(nnc3-c3ccccc3Cl)SC2)cc1 [Example 11, 3-(2-Chlorophenyl)-6-(4-methylphenyl)-7H-[1,2,4]triazolo[3,4-b][1,3,4]thiadiazine hydrochloride]"
534,122,188,214,270,258,"CCN(CC)c1ccc(C2=Nn3c(nnc3-c3ccc(OC)c(OC)c3)SC2)cc1 [Example 22, 6-(4-Diethylaminophenyl)-3-(3,4-dimethoxyphenyl)-7H-[1,2,4]triazolo[3,4-b][1,3,4]thiadiazine]"
> 10000,> 10000,> 10000,> 10000,> 10000,> 10000,"COc1ccc(-c2nnc3n2N=C(c2ccc([N+](=O)[O-])cc2)CS3)cc1OC [Example 28, 3-(3,4-Dimethoxyphenyl)-6-(4-nitrophenyl)-7H-[1,2,4]triazolo[3,4-b][1,3,4]thiadiazine]"
4720,2540,5280,–,–,545,"COc1ccc(-c2nnc3n2N=C(c2ccc(N)cc2)CS3)cc1OC [Example 29, 6-(4-Aminophenyl)-3-(3,4-dimethoxyphenyl)-7H-[1,2,4]triazolo[3,4-b][1,3,4]thiadiazine]"
–,–,–,> 10000,> 10000,4860,"COc1ccc(-c2nnc3n2N=C(c2ccc(NC(C)=O)cc2)CS3)cc1OC [Example 32, 6-(4-Acetamidophenyl)-3-(3,4-dimethoxyphenyl)-7H-[1,2,4]triazolo[3,4-b][1,3,4]thiadiazine]"
–,–,–,2730,2400,2680,"COc1ccc(-c2nnc3n2N=C(c2ccc4[nH]c(=O)oc4c2)CS3)c(OC)c1 [Example 33, 6-(2,3-Dihydro-2-oxobenzo[d]oxazol-6-yl)-3-(2,4-dimethoxyphenyl)-7H-[1,2,4]triazolo[3,4-b][1,3,4]thiadiazine]"
5630,5080,> 10000,> 10000,5560,5420,"CCc1nnc2n1N=C(c1ccc(OC)cc1)CS2 [Example J2, 3-Ethyl-6-(4-methoxyphenyl)-7H-[1,2,4]triazolo[3,4-b][1,3,4]thiadiazine]"
5470,5560,> 10000,5530,5470,5840,"COc1ccc(C2=Nn3c(nnc3-c3cccc(OC(C)C)c3)SC2)cc1 [Example K2, 3-(3-Isopropyloxyphenyl)-6-(4-methoxyphenyl)-7H-[1,2,4]triazolo[3,4-b][1,3,4]thiadiazine]"
4330,4770,> 10000,5240,5190,5150,"c1cc2c(cc1C1=Nn3c(nnc3C3CCCCC3)SC1)OCO2 [Example M2, 3-Cyclohexyl-6-(3,4-methylenedioxyphenyl)-7H-[1,2,4]triazolo[3,4-b][1,3,4]thiadiazine]"
268,82,124,68,–,–,COc1ccc(C2=Nn3c(nnc3-c3cccc(Cl)c3Cl)SC2)cc1 [Example M3]
542,501,> 10000,–,540,514,"COc1ccc(-c2nnc3n2N=C(c2ccc4c(c2)OCO4)CS3)cc1OC [Example O1, 3-(3,4-Dimethoxyphenyl)-6-(3,4-methylenedioxyphenyl)-7H-[1,2,4]triazolo[3,4-b][1,3,4]thiadiazine]"
1420,433,665,635,641,597,"CCOc1ccc(C2=Nn3c(nnc3-c3cccc(C)c3)SC2)cc1 [Example O2, 3-(3-Methylphenyl)-6-(4-ethoxyphenyl)-7H-[1,2,4]triazolo[3,4-b][1,3,4]thiadiazine]"
1300,765,2620,585,–,–,COc1cccc(C2=Nn3c(nnc3-c3ccc(Cl)cc3Cl)SC2)c1 [Example O3]
669,2640,> 10000,–,> 1000,628,"c1ccc(-c2nnc3n2N=C(c2ccc4c(c2)OCO4)CS3)cc1 [Example P1, 3-Phenyl-6-(3,4-methylenedioxyphenyl)-7H-[1,2,4]triazolo[3,4-b][1,3,4]thiadiazine]"
2160,473,1470,880,901,660,"CCOc1ccc(C2=Nn3c(nnc3-c3ccc(F)cc3)SC2)cc1 [Example P2, 3-(4-Fluorophenyl)-6-(4-ethoxyphenyl)-7H-[1,2,4]triazolo[3,4-b][1,3,4]thiadiazine]"
277,257,551,250,484,264,"Fc1ccccc1-c1nnc2n1N=C(c1ccc3c(c1)OCO3)CS2 [Example Q1, 3-(2-Fluorophenyl)-6-(3,4-methylenedioxyphenyl)-7H-[1,2,4]triazolo[3,4-b][1,3,4]thiadiazine]"
> 10000,> 10000,> 10000,292,–,–,COc1ccccc1-c1nnc2n1N=C(c1ccc(Cl)c(Cl)c1)CS2 [Example Q3]
1660,271,700,546,569,339,COc1ccc(C2=Nn3c(nnc3-c3ccc(F)cc3)SC2)cc1 [Example S2]
145,42,65,40,65,39,"COc1cc(-c2nnc3n2N=C(c2ccc(Br)cc2)CS3)cc(OC)c1OC [Example U1, 3-(3,4,5-Trimethoxyphenyl)-6-(4-bromophenyl)-7H-[1,2,4]triazolo[3,4-b][1,3,4]thiadiazine]"
–,–,–,2580,4860,2580,COc1ccccc1-c1nnc2n1N=C(c1ccc([N+](=O)[O-])cc1)CS2 [Example X2]

# — US20080045514A1 (Cytovia, Inc., priority 2006, published 2008)
